Test results from patent US6511804B1, “Selective assay for determining the identity of live microorganisms in a mixed culture” (priority 1998, dated 2003).
Where two headings read alike, the source gives them in different places.

Experiments:
[1] = system: H. actinomycetemcomitans (ATCC No. 43718); test: BrdU immunocapture/PCR antibiotic sensitivity of H. actinomycetemcomitans; format: cell-based, Haemophilus actinomycetemcomitans; conditions: anaerobic culture; FIG. 8
Protocol: H. actinomycetemcomitans is reported to be a human pathogen, and has been implicated in juvenile periodontitis. In these studies, a culture of H. actinomycetemcomitans (ATCC No. 43718; previously known as Actinobacillus actinomycetemcomitans) was grown to saturation under anaerobic conditions as in part A, above, except that hemin was not added to the medium. The culture was diluted 1:10 into fresh media, and grown for a further 4 hours under anaerobic conditions. At this point, the culture was divided into aliquots and subjected to the same testing protocol as was employed in part A of this Example, except that after the BrdU was added, the 2 hour incubation was followed for convenience by overnight storage under refrigeration at 4° C. The next day, the aliquoted cultures were lysed by the NaOH lysis protocol described above, PCR was performed, and the capture probe set forth in Table 1 for this organism was employed.

[2] = system: T. denticola (ATCC number 35405); test: BrdU immunocapture/PCR antibiotic sensitivity of Treponema denticola; format: cell-based; conditions: FIG. 9; for BrdU incorporation / immunocapture PCR signal: T. denticola; for sensitivity or resistance of T. denticola: anaerobic culture, no negative immunocapture control
Protocol: Treponema denticola was also studied using the invention. In these studies, a culture of T. denticola (ATCC number 35405) was inoculated into fresh media and grown anaerobically for 1 day in NOS media (ATCC media formulation 1494). The cultures were grown as in Part A of this Example, except that the cultures were incubated for about 8 hours prior to the addition of BrdU, they were incubated overnight after the addition of BrdU, and the samples were analyzed the next day. The PCR was conducted in the manner described above, except that a GroEL primer set was not available and a primer set for the FlgE gene (endoflagellar subunit protein) referred to FlgE001 and FlgE006 was substituted. These primers were expected to give rise to a 542 bp PCR fragment.

[3] = system: Porphyromonas gingivalis (ATCC No. 33277); test: BrdU immunocapture/PCR antibiotic sensitivity of Porphyromonas gingivalis; conditions: anaerobic culture; 2 hours antibiotic then 2 hours BrdU; FIG. 7
E. coli strain NK5830 [4] = format: cell-based; conditions: antibiotic at final concentration 100 μg/ml, FIG. 3
E. coli = format: cell-based
E. coli strain NK5830 [5] = test: BrdU immunocapture/PCR antibiotic sensitivity assay, strain NK5830; conditions: antibiotic 100 μg/ml, FIG. 4
E. coli strain W3110 = test: Growth curves of E. coli strain W3110 in L-broth with antibiotic or BrdU; format: cell-based; conditions: FIG. 3
E. coli (C600) [6] = test: Ampicillin sensitivity of E. coli C600 as stated; format: cell-based
P. mirabilis = test: Ampicillin resistance of the P. mirabilis strain; format: cell-based, Proteus mirabilis; conditions: P. mirabilis strain used in these studies
E. coli (C600) [7] = test: Mixed culture P. mirabilis:E. coli 50:1 with ampicillin, BrdU immunocapture and FlaA PCR; format: cell-based; conditions: 50:1 P. mirabilis:E. coli; L-broth with 5, 10, or 20 μg/ml ampicillin

Molecule: Cc1ncc([N+](=O)[O-])n1CCO [metronidazole]
- sensitivity or resistance of H. actinomycetemcomitans [1]: resistance
- BrdU incorporation / immunocapture PCR signal [2]: level of BrdU incorporation is at background
- sensitivity or resistance of T. denticola [2]: sensitive
- sensitivity or resistance of P. gingivalis [3]: sensitive

Molecule: CCn1cc(C(=O)O)c(=O)c2ccc(C)nc21 [nalidixic acid]
- growth (growth curve) (E. coli strain NK5830 [4]): did not cause any growth inhibition
- effect on the growth of E. coli (E. coli): greatest effect
- sensitivity or resistance of H. actinomycetemcomitans [1]: sensitivity
- BrdU incorporation / immunocapture PCR signal [2]: equivalent to the positive control
- sensitivity or resistance of T. denticola [2]: resistant
- immunocapture/PCR signal (BrdU-labeled DNA, gel) (E. coli strain NK5830 [5]): strong positive signal
- growth (growth curve) (E. coli strain W3110; antibiotic at final concentration 100 μg/ml): inhibited growth
- sensitivity or resistance of P. gingivalis [3]: resistant

Molecule: O=c1[nH]c(=O)n([C@H]2C[C@H](O)[C@@H](CO)O2)cc1Br [BrdU, 5-bromo-2′-deoxyuridine]
- growth profile after addition of BrdU (E. coli strain W3110; BrdU added at 2.5 hours): did not change the growth profile

Molecule: gentamycin
- effect on the growth of E. coli (E. coli; compared to controls grown in the absence of the antibiotic): greatest effect

Molecule: [H]/N=C(/N)N[C@H]1[C@H](O)[C@@H](O)[C@H](O[C@@H]2O[C@@H](C)[C@](O)(C=O)[C@H]2O[C@@H]2O[C@@H](CO)[C@H](O)[C@@H](O)[C@@H]2NC)[C@@H](N/C(N)=N\[H])[C@@H]1O [Streptomycin]
- effect on the growth of E. coli (E. coli): little or no effect

Molecule: CC1(C)S[C@@H]2[C@H](NC(=O)[C@H](N)c3ccccc3)C(=O)N2[C@H]1C(=O)O [Ampicillin]
- detectable BrdU compared to the control (E. coli; E. coli strain W3110): lack of detectable BrdU compared to the control
- effect on cells (lysis) (E. coli; E. coli strain W3110): lysed
- sensitivity to ampicillin (E. coli (C600) [6]): extremely sensitive
- ampicillin concentration to which the strain is resistant (P. mirabilis): over 400 μg/ml
- PCR products obtained (E. coli 1 kb / P. mirabilis 800 bp) (E. coli (C600) [7]): only the P. mirabilis PCR product

Molecule: O=C(N[C@H](CO)[C@H](O)c1ccc([N+](=O)[O-])cc1)C(Cl)Cl [Chloramphenicol]
- effect on the growth of E. coli (E. coli): significantly reduced growth
